Paper PMC7564829, “Potent Broad-Spectrum Antibacterial Activity of Amphiphilic Peptides against Multidrug-Resistant Bacteria” (Microorganisms, 2020)
In brackets after ≈: the same amount, converted by molar mass. Like-named read-outs stand apart in the source and are kept apart here. Ends that are not written are not given here.

What was measured:
[1] = tested on: MDR E. coli B2 (mcr-1 + blaNDM-5); experiment: microbe, parasite or virus in culture; assay type: cell-based
Method: (§1) Experiments were performed with two biological replicates.

[2] = tested on: E. coli ATCC 25922; experiment: microbe, parasite or virus in culture; assay type: cell-based
Method: as §1

[3] = tested on: S. aureus 215 (cfr + LZD^R); experiment: microbe, parasite or virus in culture; assay type: cell-based; settings: 18 h
Method: as §1

[4] = tested on: S. enteritidis ATCC 13076; experiment: microbe, parasite or virus in culture; assay type: cell-based
Method: as §1

[5] = tested on: S. aureus ATCC 29213; experiment: microbe, parasite or virus in culture; assay type: cell-based
Method: as §1

[6] = tested on: E. faecalis A4 (VRE); experiment: MIC/MBC, broth micro-dilution; assay type: cell-based
Method: as §1

[7] = tested on: E. coli B3-1 (tet(X4)); experiment: MIC/MBC, broth micro-dilution; assay type: cell-based
Method: as §1

[8] = tested on: E. coli 1F28 (tet(X4)); experiment: MIC/MBC, broth micro-dilution; assay type: cell-based
Method: as §1

[9] = tested on: MRSA T144; experiment: MIC/MBC, broth micro-dilution; assay type: cell-based, Staphylococcus aureus
Method: as §1

[10] = tested on: E. coli 2A19; experiment: MIC, tigecycline-resistant clinical isolate; assay type: cell-based
Method: as §1

[11] = tested on: E. coli 1N31; experiment: MIC, tigecycline-resistant clinical isolate; assay type: cell-based
Method: as §1

[12] = tested on: E. coli 1F16; experiment: MIC, tigecycline-resistant clinical isolate; assay type: cell-based
Method: as §1

[13] = tested on: E. coli 1N28; experiment: MIC, tigecycline-resistant clinical isolate; assay type: cell-based
Method: as §1

[14] = tested on: Shigella 1F25; experiment: MIC, tigecycline-resistant clinical isolate; assay type: cell-based; settings: Shigella 1F25, feces, broth micro-dilution
Method: as §1

[15] = tested on: E. coli 1F31; experiment: MIC, tigecycline-resistant clinical isolate; assay type: cell-based
Method: as §1

[16] = tested on: E. coli 1A34; experiment: MIC, tigecycline-resistant clinical isolate; assay type: cell-based
Method: as §1

[17] = tested on: E. coli 1C1; experiment: MIC, tigecycline-resistant clinical isolate; assay type: cell-based
Method: as §1

[18] = tested on: E. coli 2W25; experiment: MIC, tigecycline-resistant clinical isolate; assay type: cell-based
Method: as §1

[19] = Hydrophobicity by RP-HPLC (percent acetonitrile at elution); assay type: physicochemical; settings: acetonitrile in water, 0.1% (v/v) TFA, higher percent = higher hydrophobicity
Method: All peptides used in this study were synthesized by GL Biochem (Shanghai, China) using a solid phase peptide synthesis (SPPS) method, and their accurate molecular weights were determined by matrix-assisted laser desorption/ionization time-of-flight mass spectrometry (MALDI-TOF MS). The peptide purity (>95%) and retention time were determined by reversed-phase high-performance liquid chromatography (HPLC).
A collection of tryptophan-rich linear peptides on the basis of MP196 (RWRWRW-NH2) was designed by increasing peptide length or positive charge or hydrophobicity, replacing amino acids and/or N-terminal acetylation (Table 1). These peptides were synthesized via solid-phase peptide synthesis (SPPS), purified by reverse-phase high-performance liquid chromatography (RP-HPLC) (Figure S1) and validated by matrix-assisted laser desorption/ionization time-of-flight mass spectrometry (MALDI-TOF MS) (Figure S2). […] All engineered peptides belong to cationic AMPs, with 3 or 6 net charges. The percentage of acetonitrile at RP-HPLC elution was regarded as a relative measure of peptides’ hydrophobicity. […] The hydrophobicity order was listed as follows: WRK-12 > WL-9 > WR-6 > WV-9 > KW-6 > WKK-12 > WR-12 > MP196 > WK-6.

[20] = tested on: RBCs; settings: cited from earlier work
[21] = ref [19]; cited from earlier work
Description: Antimicrobial peptides (AMPs), also named host defense peptides, are originated from various organisms and are important immune modulation molecules that protect the host from the invading pathogens. […] However, the high cost of peptides, the lability to proteases, less bioavailable and nonspecific toxicity still hinder these AMPs in clinical practice. A more rational design of AMPs contributes to improving their stability and antibacterial activity. ...

[22] = Escherichia coli, Table 2, E. coli B2 (mcr-1 + blaNDM-5), broth micro-dilution CLSI 2018, MHB, 18 h, 37 °C, read-out: MIC
[23] = Escherichia coli, E. coli B3-1 (tet(X4)), broth micro-dilution CLSI 2018, MHB, 18 h, 37 °C, read-out: MIC
[24] = Escherichia coli, E. coli 1F28 (tet(X4)), broth micro-dilution CLSI 2018, MHB, 18 h, 37 °C, read-out: MIC
[25] = Staphylococcus aureus, MRSA T144, broth micro-dilution CLSI 2018, MHB, 18 h, 37 °C, read-out: MIC
[26] = Escherichia coli, ATCC25922, 18 h
[27] = Staphylococcus aureus, ATCC29213, 18 h
[28] = Enterococcus faecalis, VRE, 18 h
[29] = MDR B2 (mcr-1 + blaNDM-5, 18 h)
[30] = S. aureus 215 (cfr + LZD^R), broth micro-dilution CLSI 2018, MHB, 37 °C

Compound: CC1(C)S[C@@H]2[C@H](NC(=O)[C@H](N)c3ccccc3)C(=O)N2[C@H]1C(=O)O [AMP, ampicillin]
- MIC [1, 22]: > 128 µg/mL
- MIC ([2]; Escherichia coli, ATCC25922, E. coli ATCC 25922, broth micro-dilution CLSI 2018, MHB, 18 h, 37 °C, read-out: MIC): 8 µg/mL (≈ 22.9 µM)
- MIC ([3]; Staphylococcus aureus): 64 µg/mL (≈ 183 µM)
- MIC ([4]; Salmonella enterica, S. enteritidis ATCC 13076, broth micro-dilution CLSI 2018, MHB, 18 h, 37 °C, read-out: MIC): 8 µg/mL (≈ 22.9 µM)
- MIC ([5]; Staphylococcus aureus, ATCC29213, S. aureus ATCC 29213, broth micro-dilution CLSI 2018, MHB, 18 h, 37 °C, read-out: MIC): 0.25 µg/mL (≈ 0.715 µM)
- MIC ([6]; Enterococcus faecalis, E. faecalis A4 (VRE), broth micro-dilution CLSI 2018, MHB, 18 h, 37 °C, read-out: MIC): 32 µg/mL (≈ 91.6 µM)
- MIC [7, 23]: > 128 µg/mL
- MIC [8, 24]: > 128 µg/mL
- MIC [9, 25]: 32 µg/mL (≈ 91.6 µM)

Compound: CN(C)c1cc(NC(=O)CNC(C)(C)C)c(O)c2c1C[C@H]1C[C@H]3[C@H](N(C)C)C(O)=C(C(N)=O)C(=O)[C@@]3(O)C(O)=C1C2=O [TIG, tigecycline, reference compound]
- MIC ([10]; Escherichia coli, E. coli 2A19, tigecycline-resistant clinical isolate, broth micro-dilution, read-out: MIC): 8 µg/mL (≈ 13.7 µM)
- MIC ([11]; Escherichia coli, E. coli 1N31, tigecycline-resistant clinical isolate, broth micro-dilution, read-out: MIC): 128 µg/mL (≈ 219 µM)
- MIC ([12]; Escherichia coli, E. coli 1F16, feces, tigecycline-resistant clinical isolate, broth micro-dilution, read-out: MIC): > 64 µg/mL
- MIC ([13]; Escherichia coli, E. coli 1N28, nasal swab, tigecycline-resistant clinical isolate, broth micro-dilution, read-out: MIC): 32 µg/mL (≈ 54.6 µM)
- MIC ([14]; read-out: MIC): 8 µg/mL (≈ 13.7 µM)
- MIC ([15]; Escherichia coli, E. coli 1F31, tigecycline-resistant clinical isolate, broth micro-dilution, read-out: MIC): 32 µg/mL (≈ 54.6 µM)
- MIC ([16]; Escherichia coli, E. coli 1A34, anal swab, tigecycline-resistant clinical isolate, broth micro-dilution, read-out: MIC): 16 µg/mL (≈ 27.3 µM)
- MIC ([17]; Escherichia coli, E. coli 1C1, dust, tigecycline-resistant clinical isolate, broth micro-dilution, read-out: MIC): 32 µg/mL (≈ 54.6 µM)
- MIC ([18]; Escherichia coli, E. coli 2W25, water, tigecycline-resistant clinical isolate, broth micro-dilution, read-out: MIC): 64 µg/mL (≈ 109 µM)
- MIC [1, 22]: 2 µg/mL
- MIC [2, 26]: 0.125 µg/mL (≈ 0.213 µM)
- MIC ([3]; Staphylococcus aureus): 1 µg/mL (≈ 1.71 µM)
- MIC ([4]; Salmonella enterica, 18 h): 0.125 µg/mL (≈ 0.213 µM)
- MIC [5, 27]: 0.125 µg/mL (≈ 0.213 µM)
- MIC [6, 28]: 0.125 µg/mL (≈ 0.213 µM)
- MIC [7, 23]: 32 µg/mL (≈ 54.6 µM)
- MIC [8, 24]: 32 µg/mL (≈ 54.6 µM)
- MIC [9, 25]: 2 µg/mL (≈ 3.41 µM)

Compound: CN[C@H](CC(C)C)C(=O)N[C@H]1C(=O)N[C@@H](CC(N)=O)C(=O)N[C@H]2C(=O)N[C@H]3C(=O)N[C@H](C(=O)N[C@H](C(=O)O)c4cc(O)cc(O)c4-c4cc3ccc4O)[C@H](O)c3ccc(c(Cl)c3)Oc3cc2cc(c3O[C@@H]2O[C@H](CO)[C@@H](O)[C@H](O)[C@H]2O[C@H]2C[C@](C)(N)[C@H](O)[C@H](C)O2)Oc2ccc(cc2Cl)[C@H]1O [VAN, vancomycin]
- MIC ([1]; Escherichia coli, 18 h): 128 µg/mL (≈ 88.3 µM)
- MIC [2, 26]: 128 µg/mL (≈ 88.3 µM)
- MIC ([3]; Staphylococcus aureus): 1 µg/mL (≈ 0.69 µM)
- MIC ([4]; Salmonella enterica, 18 h): 128 µg/mL (≈ 88.3 µM)
- MIC [5, 27]: 0.5 µg/mL (≈ 0.345 µM)
- MIC [6, 28]: > 128 µg/mL
- MIC ([7]; Escherichia coli, 18 h): 64 µg/mL (≈ 44.2 µM)
- MIC ([8]; Escherichia coli, 18 h): 128 µg/mL (≈ 88.3 µM)
- MIC ([9]; Staphylococcus aureus, MRSA, 18 h): 1 µg/mL (≈ 0.69 µM)

Compound: Ac-WKVKWKVKWKVK-NH2 [WKK-12]
- MIC ([10]; 2A19, 4 h): 128 µg/mL
- MIC ([11]; 1N31, 4 h): 64 µg/mL
- MIC ([12]; 1F16, 4 h): 64 µg/mL
- MIC ([13]; 1N28, 4 h): 64 µg/mL
- MIC [14]: 64 µg/mL
- MIC ([15]; 1F31, 4 h): 64 µg/mL
- MIC ([16]; 1A34, 4 h): 64 µg/mL
- MIC ([17]; 1C1, 4 h): 64 µg/mL
- MIC ([18]; 2W25, 4 h): 64 µg/mL
- H (hydrophobicity, percent of acetonitrile at HPLC elution) [19]: 31.424 percent acetonitrile
- MIC [1, 29]: 64 µg/mL
- MIC ([2]; ATCC 25922, 18 h): 128 µg/mL
- MIC [3, 30]: 64 µg/mL
- MIC ([4]; ATCC 13076, 18 h): 64 µg/mL
- MIC ([5]; ATCC 29213, 18 h): 128 µg/mL
- MIC ([6]; A4 (VRE, 18 h)): 64 µg/mL
- MIC ([7]; B3-1 (tet(X4, 18 h))): 64 µg/mL
- MIC ([8]; 1F28 (tet(X4, 18 h))): 64 µg/mL
- MIC ([9]; T144, 18 h): 64 µg/mL

Compound: KWKWKW-NH2 [KW-6]
- MIC [1, 29]: >64 µg/mL

Compound: RWRWRW-NH2 [MP196]
- hemolysis to RBCs [20]: high hemolysis
- in vivo stability [21]: low in vivo stability
- MIC [1, 29]: >64 µg/mL

Compound: WKVWKVWKV-NH2 [WV-9]
- MIC [1, 29]: >64 µg/mL

Compound: WKWKWK-NH2 [WK-6]
- MIC [1, 29]: >64 µg/mL

Compound: WRLRWRLRWRLR-NH2 [WR-12]
- MIC [1, 29]: 2 µg/mL

Compound: WRLWRLWRL-NH2 [WL-9]
- MIC [1, 29]: 8 µg/mL

Compound: WRWRWR-NH2 [WR-6]
- MIC [1, 29]: >64 µg/mL

Compound: colistin
- MIC ([1]; Table 2, E. coli B2 (mcr-1 + blaNDM-5), broth micro-dilution CLSI 2018, MHB, 18 h, 37 °C): 8 µg/mL
- MIC ([2]; E. coli ATCC 25922, broth micro-dilution CLSI 2018, MHB, 18 h, 37 °C): 0.5 µg/mL
- MIC [3, 30]: 64 µg/mL
- MIC ([4]; S. enteritidis ATCC 13076, broth micro-dilution CLSI 2018, MHB, 18 h, 37 °C): 0.25 µg/mL
- MIC ([5]; S. aureus ATCC 29213, broth micro-dilution CLSI 2018, MHB, 18 h, 37 °C): 16 µg/mL
- MIC ([6]; E. faecalis A4 (VRE), broth micro-dilution CLSI 2018, MHB, 18 h, 37 °C): 128 µg/mL
- MIC ([7]; E. coli B3-1 (tet(X4)), broth micro-dilution CLSI 2018, MHB, 18 h, 37 °C): 0.25 µg/mL
- MIC ([8]; E. coli 1F28 (tet(X4)), broth micro-dilution CLSI 2018, MHB, 18 h, 37 °C): 0.25 µg/mL
- MIC ([9]; MRSA T144, broth micro-dilution CLSI 2018, MHB, 18 h, 37 °C): 128 µg/mL
